Results published in patent US20170015640A1, “USE OF ARYLALKANOLAMINES AS SIGMA-1 RECEPTOR ANTAGONISTS” (Università degli studi di Pavia, priority 2014, published 2017).

What was measured:
[1] = In vitro metabolic stability in dog plasma; assay type: in vitro ADME; conditions: 37° C., FIG. 7(A)
Experimental: (§1) The metabolic stability studies were performed using biological matrices (plasma, blood and S9 fraction of liver) obtained from various animal species.
(§2) The biological matrices and the analysis method were arranged according to the process described by Rossi D. et al. in “Identification of RC-33 as a potent and selective al receptor agonist potentiating NGF-induced neurite outgrowth in PC12 cells. Part 2: g -scale synthesis, physicochemical characterization and in vitro metabolic stability” (Bioorg. Med. Chem. 2013, 21, 2577-2586).
(§3) For each biological matrix, suitable solutions were prepared to perform the test, as described below.
(§4) 10 μL of a stock solution of compound 1 in dimethyl sulfoxide (DMSO) were incubated with each matrix (total reaction volume 1 mL) in a mixer thermostatically maintained at 37° C. for […]. 50 μL aliquots were taken from each reaction mixture and sampled in duplicate at 5, 10, 15, 30, 60, 120 and 240 minutes to determine the reaction kinetics. […] The supernatant was analysed by means of an Acquity Waters ultra-fast liquid chromatography system, interfaced with a photodiode array detector (UPLC/UV/PAD) to obtain the concentration of the test compound at each of the said times. […]
(§5) The results, obtained from three independent experiments and expressed as the mean value ±standard deviation (SD), are given in FIGS. 8 and 9.

[2] = In vitro metabolic stability in human plasma; assay type: in vitro ADME; conditions: 37° C., FIG. 7(A)
Experimental: as §1, §2, §3, §4, §5

[3] = In vitro metabolic stability, overall conclusion over biological matrices; assay type: in vitro ADME, various animal species
Experimental: as §1, §2, §3, §4, §5

[4] = In vitro metabolic stability in rat blood; assay type: in vitro ADME; conditions: 37° C., FIG. 7(B)
Experimental: as §1, §2, §3, §4, §5

σ-1 receptor = σ-1 receptor (Cavia porcellus, UniProt Q60492); experiment: biochemical
σ-1 receptor, sequence (Q60492 whole entry): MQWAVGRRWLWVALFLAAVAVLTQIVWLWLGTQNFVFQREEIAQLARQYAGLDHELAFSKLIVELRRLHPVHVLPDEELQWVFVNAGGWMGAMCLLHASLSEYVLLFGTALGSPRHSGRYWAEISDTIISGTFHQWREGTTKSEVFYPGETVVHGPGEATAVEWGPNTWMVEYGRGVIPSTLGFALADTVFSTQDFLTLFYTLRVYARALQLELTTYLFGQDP
Description: The IC50 values obtained from three independent experiments were transformed into the respective affinity constants (Ki), using the Cheng-Prusoff equation.

[5] = In vitro metabolic stability in S9 fraction of human liver; assay type: in vitro ADME
Experimental: as §1, §2, §3, §4, §5

[6] = In vitro metabolic stability in rat plasma; assay type: in vitro ADME; conditions: 37° C., FIG. 7(A)
Experimental: as §1, §2, §3, §4, §5

[7] = In vitro metabolic stability in S9 fraction of rat liver; assay type: in vitro ADME
Experimental: as §1, §2, §3, §4, §5

male ICR mice = experiment: Formalin test (animal model of inflammatory pain); assay type: in vivo, mouse; conditions: intraperitoneal, even at a dose of 1 mg/kg, 30 min before 2% formalin, FIG. 9
Experimental: The formalin test is an animal model of inflammatory pain widely used and known in the literature.
32 male ICR mice weighing 25 grams were divided into 4 groups of 8 mice each.
The vehicle alone, which consisted of a mixture of dimethyl sulfoxide (DMSO), castor oil Cremophor® EL (BASF) and distilled water, in a 10/10/80 ratio, was administered to the control group (CTR).
Compound 1 was dissolved in the same vehicle and administered at the following doses: • group 1, 1 mg/kg; • group 2, 10 mg/kg; and • group 3, 20 mg/kg.
All the administrations took place by intraperitoneal injection. Thirty minutes after the administration, all the mice were subjected to an injection with 20 uL of a 2% formalin solution subcutaneously, into a paw.
The injection of formalin induces a two-phase nociceptive response, in other words, within the first 5-10 minutes of the administration of formalin, the first nociceptive phase is manifested, followed by a phase of quiescence and by the second nociceptive phase which is manifested 20-30 minutes after the administration of formalin.
The nociceptive response was recorded by evaluating the time that each mouse spent licking or biting its paw which received the injection. […]

σ-1 receptors = target: T1, σ-1 receptors (Rattus norvegicus, UniProt Q9R0C9); experiment: Growth of NGF-induced neurite outgrowths in PC12 cells (agonist/antagonist profile); assay type: cell-based; conditions: FIG. 6
T1 construct: performed on rat pheochromocytoma cells (PC12 cells); endogenous in cells; host or cells: PC12 rat pheochromocytoma cells
T1 sequence (Q9R0C9 whole entry): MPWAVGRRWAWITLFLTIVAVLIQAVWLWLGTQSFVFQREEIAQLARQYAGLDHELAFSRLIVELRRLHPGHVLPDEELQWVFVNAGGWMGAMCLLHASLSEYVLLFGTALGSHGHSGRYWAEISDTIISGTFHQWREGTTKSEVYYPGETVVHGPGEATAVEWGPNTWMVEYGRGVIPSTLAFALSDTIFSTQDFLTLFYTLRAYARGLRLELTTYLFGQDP
Experimental: Evaluation of the growth of neurite outgrowths induced by neuronal growth factor (NGF).
Evaluation of the growth of NGF-induced neurite outgrowths was performed on rat pheochromocytoma cells (PC12 cells), conventionally used as a model of neuronal study.
This method constitutes a reliable model for evaluating the agonist/antagonist profile of low molecular weight compounds on the o receptors. In particular, it has been reported that σ-1 agonists potentiate the growth of NGF-induced neurite outgrowths in PC12 cells. In contrast, σ-1 antagonists oppose the action of the agonists, leading to a reduction in NGF-induced growth (Rossi D. et al., “identification of a potent and selective σ1 receptor agonist potentiating NGF-induced neurite outgrowth in PC12 cells”, Bioorg. Med. Chem. 2011, 19, 6210-6224).
The cell culturing PC12 cells, the method for quantifying the growth of neurite outgrowths and the cytotoxicity test were performed as described by Rossi D. et al. in Bioorg. Med. Chem. 2011 cited above.
Statistical analysis of the data obtained was performed using the two-way analysis of variants (ANOVA) method and the Tukey post-hoc test. Values of p<0.05 were considered as being statistically significant.
The results, expressed as the mean value ±standard error of mean (SEM), represent the percentage of cells showing neurite growth. […]

[8] = In vitro metabolic stability in mouse blood; assay type: in vitro ADME; conditions: 37° C., FIG. 7(B)
Experimental: as §1, §2, §3, §4, §5

SMILES	metabolization in dog plasma [1]	metabolization in human plasma [2]	in vitro metabolic stability [3]	metabolization in rat blood [4]	Ki (σ-1 receptor) [nM]	metabolization in S9 fraction of human liver ([5]; absence of NADPH, FIG. 8(A))	metabolization in S9 fraction of human liver ([5]; presence of NADPH, FIG. 8(B))	metabolization in rat plasma [6]	metabolization in S9 fraction of rat liver ([7]; absence of NADPH, FIG. 8(A))	metabolization in S9 fraction of rat liver ([7]; presence of NADPH, FIG. 8(B))	reduction of inflammatory pain (time spent licking or biting the paw) (male ICR mice)	effect on agonist-potentiated growth of NGF-induced neurite outgrowths (σ-1 receptors; σ-1 agonist plus 2.5 μM of compound (group A))	metabolization in mouse blood [8]	percentage of cells with growth of neurite outgrowths (σ-1 receptors; reference group (PRE) relative to control group (NGF))
OCC(CCN1CCCCC1)c1ccc(-c2ccccc2)cc1 (centres unmarked) [Compound 1, 4-(N-piperidinyl)-2-(4-diphenyl)butanol]	insignificant	insignificant	high	insignificant	6.2	insignificant	substantial metabolization	insignificant	insignificant	substantial metabolization	effective in reducing inflammatory pain	appreciably opposed the effect of the agonist compound	insignificant	
Cl.O=C(OCCN1CCOCC1)C1(c2ccccc2)CCCCC1 [PRE, 2-(4-morpholinoethyl)-1-phenylcyclohexanecarboxylate hydrochloride, reference compound]														increased significantly
